Results published in patent US5672715A, “Herbicidal substituted 3-aryl-pyrazoles” (Monsanto Company, priority 1995, dated 1997).

Tests used:
Format in all cases: in vivo
Morning Glory [1] = assay: post-emergence herbicide test; conditions: Ipomoea, post-emergence, 0.25 lb/A; read-out: % plant inhibition
In short: (§1)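 Two- to three-week-old plants, greenhouse-grown in compacted topsoil, received candidate chemical by atomizer spray at 1870 L/Ha. Scored as percent inhibition.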

Wild Oats [2] = assay: post-emergence herbicide test; conditions: Avena fatua, post-emergence, 0.25 lb/A; read-out: % plant inhibition
In short: as §1

Bedstraw Catchweed [3] = assay: post-emergence herbicide test; conditions: Galium aparine, post-emergence, 0.25 lb/A; read-out: % plant inhibition
In short: as §1

Corn [4] = assay: post-emergence herbicide test; conditions: Zea mays, post-emergence, 0.25 lb/A; read-out: % plant inhibition
In short: as §1

Green Foxtail [5] = assay: post-emergence herbicide test; conditions: Setaria viridis, post-emergence, 0.25 lb/A; read-out: % plant inhibition
In short: as §1

Blackgrass [6] = assay: post-emergence herbicide test; conditions: Alopecurus myosuroides, post-emergence, 0.25 lb/A; read-out: % plant inhibition
In short: as §1

Seedling Johnsongrass [7] = assay: post-emergence herbicide test; conditions: Sorghum halepense, post-emergence, 0.25 lb/A; read-out: % plant inhibition
In short: as §1

Velvetleaf [8] = assay: post-emergence herbicide test; conditions: Abutilon theophrasti, post-emergence, 0.25 lb/A; read-out: % plant inhibition
In short: as §1

Cocklebur [9] = assay: post-emergence herbicide test; conditions: Xanthium strumarium, post-emergence, 0.25 lb/A; read-out: % plant inhibition
In short: as §1

Rape [10] = assay: post-emergence herbicide test; conditions: post-emergence, 0.25 lb/A; read-out: % plant inhibition
In short: as §1

Barnyardgrass [11] = assay: post-emergence herbicide test; conditions: Echinochloa crus-galli, post-emergence, 0.25 lb/A; read-out: % plant inhibition
In short: as §1

Wheat [12] = assay: post-emergence herbicide test; conditions: Triticum aestivum, post-emergence, 0.25 lb/A; read-out: % plant inhibition
In short: as §1

Birdseye Speedwell [13] = assay: post-emergence herbicide test; conditions: post-emergence, 0.25 lb/A; read-out: % plant inhibition
In short: as §1

Downy Brome [14] = assay: post-emergence herbicide test; conditions: Bromus tectorum, post-emergence, 0.25 lb/A; read-out: % plant inhibition
In short: as §1

Soybean [15] = assay: post-emergence herbicide test; conditions: Glycine max, post-emergence, 0.25 lb/A; read-out: % plant inhibition
In short: as §1

Giant Foxtail [16] = assay: post-emergence herbicide test; conditions: Setaria faberi, post-emergence, 0.25 lb/A; read-out: % plant inhibition
In short: as §1

Common Chickweed [17] = assay: post-emergence herbicide test; conditions: post-emergence, 0.25 lb/A; read-out: % plant inhibition
In short: as §1

Morning Glory [18] = assay: pre-emergence herbicide test; conditions: Ipomoea, pre-emergence, 0.25 lb/A; read-out: % plant inhibition
In short: (§2)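 Seeds were sown on compacted topsoil in pans and covered with a topsoil layer carrying a known amount of active ingredient in acetone or water, applied before or after covering. Pans were bottom-watered on a greenhouse bench, and % inhibition was scored about 14 days after seeding and treatment.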

Wild Oats [19] = assay: pre-emergence herbicide test; conditions: Avena fatua, pre-emergence, 0.25 lb/A; read-out: % plant inhibition
In short: as §2

Bedstraw Catchweed [20] = assay: pre-emergence herbicide test; conditions: Galium aparine, pre-emergence, 0.25 lb/A; read-out: % plant inhibition
In short: as §2

Corn [21] = assay: pre-emergence herbicide test; conditions: Zea mays, pre-emergence, 0.25 lb/A; read-out: % plant inhibition
In short: as §2

Green Foxtail [22] = assay: pre-emergence herbicide test; conditions: Setaria viridis, pre-emergence; 0.25 lb/A; read-out: % plant inhibition
In short: as §2

Blackgrass [23] = assay: pre-emergence herbicide test; conditions: Alopecurus myosuroides, pre-emergence, 0.25 lb/A; read-out: % plant inhibition
In short: as §2

Seedling Johnsongrass [24] = assay: pre-emergence herbicide test; conditions: Sorghum halepense, pre-emergence, 0.25 lb/A; read-out: % plant inhibition
In short: as §2

Velvetleaf [25] = assay: pre-emergence herbicide test; conditions: Abutilon theophrasti, pre-emergence, 0.25 lb/A; read-out: % plant inhibition
In short: as §2

Cocklebur [26] = assay: pre-emergence herbicide test; conditions: Xanthium strumarium, pre-emergence, 0.25 lb/A; read-out: % plant inhibition
In short: as §2

Rape [27] = assay: pre-emergence herbicide test; conditions: pre-emergence, 0.25 lb/A; read-out: % plant inhibition
In short: as §2

Barnyardgrass [28] = assay: pre-emergence herbicide test; conditions: Echinochloa crus-galli, pre-emergence, 0.25 lb/A; read-out: % plant inhibition
In short: as §2

Wheat [29] = assay: pre-emergence herbicide test; conditions: Triticum aestivum, pre-emergence, 0.25 lb/A; read-out: % plant inhibition
In short: as §2

Birdseye Speedwell [30] = assay: pre-emergence herbicide test; conditions: pre-emergence, 0.25 lb/A; read-out: % plant inhibition
In short: as §2

Downy Brome [31] = assay: pre-emergence herbicide test; conditions: Bromus tectorum, pre-emergence, 0.25 lb/A; read-out: % plant inhibition
In short: as §2

Soybean [32] = assay: pre-emergence herbicide test; conditions: Glycine max, pre-emergence, 0.25 lb/A; read-out: % plant inhibition
In short: as §2

Giant Foxtail [33] = assay: pre-emergence herbicide test; conditions: Setaria faberi, pre-emergence, 0.25 lb/A; read-out: % plant inhibition
In short: as §2

Common Chickweed [34] = assay: pre-emergence herbicide test; conditions: pre-emergence, 0.25 lb/A; read-out: % plant inhibition
In short: as §2

| Compound | inhibition at 280.212 g/ha (Morning Glory [1]) [%] | inhibition at 280.212 g/ha (Wild Oats [2]) [%] | inhibition at 280.212 g/ha (Bedstraw Catchweed [3]) [%] | inhibition at 280.212 g/ha (Corn [4]) [%] | inhibition at 280.212 g/ha (Green Foxtail [5]) [%] | inhibition at 280.212 g/ha (Blackgrass [6]) [%] | inhibition at 280.212 g/ha (Seedling Johnsongrass [7]) [%] | inhibition at 280.212 g/ha (Velvetleaf [8]) [%] | inhibition at 280.212 g/ha (Cocklebur [9]) [%] | inhibition at 280.212 g/ha (Rape [10]) [%] | inhibition at 280.212 g/ha (Barnyardgrass [11]) [%] | inhibition at 280.212 g/ha (Wheat [12]) [%] | inhibition at 280.212 g/ha (Birdseye Speedwell [13]) [%] | inhibition at 280.212 g/ha (Downy Brome [14]) [%] | inhibition at 280.212 g/ha (Soybean [15]) [%] | inhibition at 280.212 g/ha (Giant Foxtail [16]) [%] | inhibition at 280.212 g/ha (Common Chickweed [17]) [%] | inhibition at 280.212 g/ha (Morning Glory [18]) [%] | inhibition at 280.212 g/ha (Wild Oats [19]) [%] | inhibition at 280.212 g/ha (Bedstraw Catchweed [20]) [%] | also measured |
| --- | --- | --- | --- | --- | --- | --- | --- | --- | --- | --- | --- | --- | --- | --- | --- | --- | --- | --- | --- | --- | --- |
| Cc1c(-c2cc(C(=O)OCSC#N)c(Cl)cc2F)nn(C)c1C(F)(F)F [Compound 50] | 35 | 10 | 35 | 5 | 25 | 5 | 0 | 90 | 60 | 15 | 5 | 10 | 75 | 10 | 7 | 0 | 60 | 0 | 0 | 25 | inhibition at 280.212 g/ha (Corn [21]): 0%; inhibition at 280.212 g/ha (Green Foxtail [22]): 10%; inhibition at 280.212 g/ha (Blackgrass [23]): 5%; inhibition at 280.212 g/ha (Seedling Johnsongrass [24]): 0%; inhibition at 280.212 g/ha (Velvetleaf [25]): 40%; inhibition at 280.212 g/ha (Cocklebur [26]): 0%; inhibition at 280.212 g/ha (Rape [27]): 0%; inhibition at 280.212 g/ha (Barnyardgrass [28]): 25%; inhibition at 280.212 g/ha (Wheat [29]): 0%; inhibition at 280.212 g/ha (Birdseye Speedwell [30]): 35%; inhibition at 280.212 g/ha (Downy Brome [31]): 5%; inhibition at 280.212 g/ha (Soybean [32]): 0%; inhibition at 280.212 g/ha (Giant Foxtail [33]): 0%; inhibition at 280.212 g/ha (Common Chickweed [34]): 35% |
| Cc1c(-c2cc(C(=O)OCC(=O)c3ccccc3)c(Cl)cc2F)nn(C)c1C(F)(F)F [Compound 43] | 75 | 15 | 30 | 7 | 20 | 10 | 25 | 80 | 85 | 25 | 5 | 10 | 100 | 10 | 15 | 0 | 65 | 10 | 5 | 20 | inhibition at 280.212 g/ha (Corn [21]): 0%; inhibition at 280.212 g/ha (Green Foxtail [22]): 60%; inhibition at 280.212 g/ha (Blackgrass [23]): 10%; inhibition at 280.212 g/ha (Seedling Johnsongrass [24]): 35%; inhibition at 280.212 g/ha (Velvetleaf [25]): 65%; inhibition at 280.212 g/ha (Cocklebur [26]): 45%; inhibition at 280.212 g/ha (Rape [27]): 5%; inhibition at 280.212 g/ha (Barnyardgrass [28]): 15%; inhibition at 280.212 g/ha (Wheat [29]): 0%; inhibition at 280.212 g/ha (Birdseye Speedwell [30]): 60%; inhibition at 280.212 g/ha (Downy Brome [31]): 5%; inhibition at 280.212 g/ha (Soybean [32]): 0%; inhibition at 280.212 g/ha (Giant Foxtail [33]): 15%; inhibition at 280.212 g/ha (Common Chickweed [34]): 55% |
